The values below come from patent publication EP0475231A1, “Benzodiazepines” (priority 1990, dated 1992).

Read-outs that look alike come from different tables or passages of the source.

The target of one test is T1, HIV-1 RT (Human immunodeficiency virus type 1 group M subtype B, UniProt P03366).
T1 construct: made in house
As to the kind of experiment: HIV-1 RT inhibition with recombinant DNA-derived enzyme, poly(rA)·oligo(dT)10 template/primer, 3H-TTP incorporation. It counts as biochemical. Here is the method: Compounds of the present invention were also examined for their ability to inhibit HIV-1 RT using recombinant DNA-derived enzyme (S.F.J. Le Grice and F. Gruninger-Leitch, European Journal of Biochemistry 187:307-314 (1990)) in […] volume assay mixtures. Mixtures contained 50mM Tris-HCl (pH 8.0), 25mM KCl, 4mM MgCl₂, 5mM dithiothreitol (DTT), 0.05% Triton X-100, […] ³H-TTP (2Ci/mmol), 1mg poly(rA)·oligo(dT)₁₀ (20:1) as template/primer, test compound at the desired concentration, and an appropriate quantity of HIV RT, usually 0.01 to 0.1mg. The assay mixtures were incubated at 37°C for 10 minutes and the reactions were stopped by the addition of 10% trichloroacetic acid (TCA). Yeast RNA ([…] per reaction) was added and the reaction products were precipitated at 4°C for 30 minutes. TCA-precipitated material was collected by filtration and the bound radioactivity determined by counting using a liquid scintillation counter. The concentration of compound required to inhibit the activity of HIV-RT by fifty percent (IC₅₀) was determined from a multiple dose-effect analysis program (J. Chou and I. C. Chou, Dose Effect Analysis with Microcomputers, Elsevier Sciences Publishers, Amsterdam 1987).

The next test concerns HIV-TAT. Put plainly: anti-HIV-TAT assay: SeAP reporter under HIV-LTR versus RSV-LTR in transfected COS cells. It counts as cell-based. The note with it: 1-50 µM, specific inhibition of SeAP under HIV-LTR minus RSV-LTR, 48 hours after addition, average of at least three tests, grades not defined. As for the experimental part:
The compounds of formula I were also tested for anti-HIV-TAT activity in an assay comprising the following steps: • (a) putting both the expression of the Secreted Alkaline Phosphatase (SeAP) gene and the viral transactivator TAT gene under the control of the HIV promoter LTR responsive to the action of the HIV transactivator TAT; • (b) transfecting cultured mammalian cells with plasmids which contain the gene constructs of (a) above and cause cellular production of the transactivating factor TAT and SeAP; • (c) adding the agent to be tested, here the compounds of formula I; and determining the amount of SeAP produced, by measuring SeAP enzymatic activity, whereby inhibition of SeAP production correlates with the anti-TAT inhibition activity.
In this assay, the inhibition of SeAP positively correlates with anti-TAT activity. The greater the ability of an agent to inhibit SeAP, the greater is its anti-TAT activity.
Specifically, with respect to the results reported below, the anti-HIV-TAT assay was run as follows:
At 24 hours post transfection 1, 10, 25 and 50 µM of a test compound of formula I was added to the culture media of COS cells transfected with two plasmids, one containing the reporter gene which codes for SeAP under control of HIV-LTR, and the other containing the HIV-TAT gene also under control of HIV-LTR. The alkaline phosphatase activity of the media was assayed 48 hours after addition of test compound with a colorimetric assay using p-nitrophenylphosphate as the substrate.
The anti-HIV-TAT activities of the test compounds were determined by measuring the amount of alkaline phosphatase in the supernatant media of cultures of cells in which SeAP gene expression was under the control of the HIV LTR promoter. The specific inhibitory activities of the test compounds were calculated according to the formula: 100[(1-A/B)-(1-C/D)] [formula] where A and B are the alkaline phosphatase activites produced by HIV-LTR/SeAP in the presence and absence, respectively, of test compound, and C and D are the alkaline phosphatase activities produced by RSV-LTR/SeAP in the presence and absence, respectively, of test compound. The concentrations tested ranged from 1-50 µM. The results provided are the average of at least three tests. The test compound was added 24 hours after cells were transfected with the plasmids when SeAP specific mRNA and protein were already present and the protein was very stable. […]

Another test concerns HIV-1 NIT strain. Put plainly: anti-HIV activity test: reduction of immuno-fluorescent positive (viral antigen) cells in infected CD4+ CEM cells. It is filed as cell-based. The note with it: Human immunodeficiency virus 1, CCRF-CEM, 96 h, concentration which reduces the number of immuno-fluorescent positive cells by 50%, MOI 1, four days after infection, read-out: IC₅₀. Here is the method:
The compounds I were tested for the inhibition of HIV-cytopathic effect and the reduction of cell-associated viral antigens in an experiment run as follows:
High titer virus stocks (HIV-1 NIT strain) were grown in CD₄+ CR10 cells in RMPI-1640 media (Gibco Laboratories) supplemented with 10% fetal calf serum and 0.1 mg/ml Gentamicin. The collected media were filtered and the virus isolates were concentrated 100 fold and stored at -80°C. CD₄+ CEM cells, propagated in the same medium, were incubated for 60 minutes at 37°C with diluted stock virus at multiplicity of infection (MOI) equal to 1. Cells were washed with phosphate buffered saline and resuspended in the medium at 2 x 10⁵ cells/ml. Various quantities of the test compounds in DMSO were added. Four days after infection, the number of live cells were counted by trypan blue exclusion (Proc. Natl. Acad. Sci. 83, 1986, 1911). At the same time, aliquots of cells were fixed with acetone and stained with antibodies from AIDS patients, followed by a second staining with fluorescein-conjugated goat anti-human IgG (Cappel). Cells stained with the fluorescent antibody were counted using a fluorescence microscope and the results were expressed as percentage of the total number of cells counted (J. Med. Virol. 19, 1986, 325).
The results of this anti-HIV activity test, expressed in IC₅₀ (µM), i.e. the concentration of the test compound which reduces the number of immuno-fluorescent positive cells by 50%, are given in Table I below.

Setting [1] is: recombinant HIV-1 RT, 37°C, 10 minutes, read-out: IC₅₀.

Consider `Clc1ccc2c(c1)C(c1ccc[nH]1)=NCC(N1CCCC1)=N2` [1-pyrrolidinyl, 7-chloro-5-(1H-pyrrol-2-yl)-2-(1-pyrrolidinyl)-3H-1,4-benzodiazepine], for which the IC50 on HIV-1 RT (setting [1]) is 10.2 µM; with HIV-1 NIT strain it was 0.8 to 5 µM. Also, the Anti-HIV-TAT activity result in the test with HIV-TAT is on record as “Medium/High”.
On to `CSC1=Nc2ccc(Cl)cc2C(c2ccc[nH]2)=NC1` [SCH₃, 7-chloro-2-(methylthio)-5-(1H-pyrrol-2-yl)-3H-1,4-benzodiazepine], for which the results for the IC50 on HIV-1 RT and in the test with HIV-1 NIT strain were 1.6 µM and 5 to 10 µM, respectively. In addition, in the test on HIV-TAT, the Anti-HIV-TAT activity result is recorded as “Low/Medium”.
Consider `Clc1ccc2c(c1)C(c1ccc[nH]1)=NCC(N1CCNCC1)=N2` [1-piperazinyl, 7-chloro-2-(1-piperazinyl)-5-(1H-pyrrol-2-yl)-3H-1,4-benzodiazepine], for which the IC50 at HIV-1 RT (setting [1]) was 18 µM. In the test on HIV-TAT, the Anti-HIV-TAT activity entry is reported as “Low”.
In the case of `C=CCNC1=Nc2ccc(Cl)cc2C(c2ccc[nH]2)=NC1` [NHCH₂CH=CH₂, 7-chloro-N-(2-propenyl)-5-(1H-pyrrol-2-yl)-3H-1,4-benzodiazepin-2-amine], on HIV-1 RT, the IC50 turned out to be 4.2 µM. Further, in the test on HIV-TAT, the Anti-HIV-TAT activity result was “Low”.
Turning to `NNC1=Nc2ccc(Cl)cc2C(c2ccc[nH]2)=NC1` [NHNH₂, 7-chloro-2-hydrazino-5-(1H-pyrrol-2-yl)-3H-1,4-benzodiazepine], the Anti-HIV-TAT activity entry in the test with HIV-TAT is on record as “High”. Further, the IC50 in the test on HIV-1 NIT strain is 1 µM.
On to `COC(CNC1=Nc2ccc(Cl)cc2C(c2ccc[nH]2)=NC1)OC` [NHCH₂CH(OCH₃)₂, 7-chloro-N-(2,2-dimethoxyethyl)-5-(1H-pyrrol-2-yl)-3H-1,4-benzodiazepin-2-amine], for which, in the test with HIV-TAT, the Anti-HIV-TAT activity entry was “Medium/High”. Further, in the test on HIV-1 NIT strain, the IC50 fell in the range of 1 to 5 µM.
As to `OCCNC1=Nc2ccc(Cl)cc2C(c2ccc[nH]2)=NC1` [NHCH₂CH₂OH, 7-chloro-N-(2-hydroxyethyl)-5-(1H-pyrrol-2-yl)-3H-1,4-benzodiazepin-2-amine], the results for the IC50 at HIV-1 RT and in the test on HIV-1 NIT strain were 8.9 µM and 2 to 5 µM, respectively. In the test with HIV-TAT, the Anti-HIV-TAT activity entry is “Medium”.
`C#CCNC1=Nc2ccc(Cl)cc2C(c2ccc[nH]2)=NC1` [NHCH₂C≡CH, 7-chloro-N-(2-propynyl)-5-(1H-pyrrol-2-yl)-3H-1,4-benzodiazepin-2-amine]: the IC50 at HIV-1 RT turned out to be 2 µM.
`NCCNC1=Nc2ccc(Cl)cc2C(c2ccc[nH]2)=NC1` [NHCH₂CH₂NH₂, N-[7-chloro-5-(1H-pyrrol-2-yl)-3H-1,4-benzodiazepin-2-yl]-1,2-ethanediamine]: the Anti-HIV-TAT activity result in the test on HIV-TAT is listed as “Medium”.
As to `CN(C)C1=Nc2ccc(Cl)cc2C(c2ccc[nH]2)=NC1` [N(CH₃)₂, 7-chloro-N,N-dimethyl-5-(1H-pyrrol-2-yl)-3H-1,4-benzodiazepin-2-amine], the IC50 at HIV-1 RT was 7.3 µM; with HIV-1 NIT strain, 1 to 3 µM. Further, the Anti-HIV-TAT activity entry in the test on HIV-TAT is given as “Medium/High”.
For `COC1=Nc2ccc(Cl)cc2C(c2ccc[nH]2)=NC1` [OCH₃, 7-chloro-2-methoxy-5-(1H-pyrrol-2-yl)-3H-1,4-benzodiazepine], in that order: 1.5 µM, 1 µM and “Medium”.
The matching figures for `Clc1ccc2c(c1)C(c1ccc[nH]1)=NCC(NCc1ccccc1)=N2` [NHCH₂Ph, 7-chloro-N-(phenylmethyl)-5-(1H-pyrrol-2-yl)-3H-1,4-benzodiazepin-2-amine]: 2.6 µM, 3 µM and “Low/Medium”.
As to `Clc1ccc2c(c1)C(c1ccc[nH]1)=NCC(N1CCCCC1)=N2` [1-piperidinyl, 7-chloro-2-(1-piperidinyl)-5-(1H-pyrrol-2-yl)-3H-1,4-benzodiazepine], the IC50 on HIV-1 RT (setting [1]) was 10.4 µM; in the test with HIV-1 NIT strain, 2 µM. The Anti-HIV-TAT activity entry with HIV-TAT is “Medium/High”.
On to `OC1CCN(C2=Nc3ccc(Cl)cc3C(c3ccc[nH]3)=NC2)C1` (racemic) [3-OH-1-pyrrolidinyl, rac-1-[7-chloro-5-(1H-pyrrol-2-yl)-3H-1,4-benzodiazepin-2-yl]-3-pyrrolidinol], for which the IC50 on HIV-1 RT (setting [1]) was 6.4 µM; in the test with HIV-1 NIT strain, 1 to 5 µM. Also, the Anti-HIV-TAT activity entry in the test on HIV-TAT is “High”.
With `Clc1ccc2c(c1)C(c1ccc[nH]1)=NCC(NC1CC1)=N2` [NH(cyclopropyl), 7-chloro-N-cyclopropyl-5-(1H-pyrrol-2-yl)-3H-1,4-benzodiazepin-2-amine], the figures for the IC50 at HIV-1 RT and with HIV-1 NIT strain were 5.4 µM and 0.8 µM, respectively. The Anti-HIV-TAT activity entry with HIV-TAT is on record as “Medium”.
Regarding `Clc1ccc2c(c1)C(c1ccc[nH]1)=NCC(Nc1ccccc1)=N2` [NHPh, 7-chloro-N-phenyl-5-(1H-pyrrol-2-yl)-3H-1,4-benzodiazepin-2-amine], on HIV-1 RT, the IC50 came to 15.8 µM.
With `CCN(CC)C1=Nc2ccc(Cl)cc2C(c2ccc[nH]2)=NC1` [N(CH₂CH₃)₂, 7-chloro-N,N-diethyl-5-(1H-pyrrol-2-yl)-3H-1,4-benzodiazepin-2-amine], the Anti-HIV-TAT activity result with HIV-TAT is “Low/Medium”.
